How the values were obtained:
Type in all cases: in vivo
[1] = test system: Galium aparine; experiment: Post-emergence herbicidal action against Galium aparine
Procedure: (§1) When the observed efficacies exceed the formal sum total of the values of the tests with individual applications, they also exceed the expected value according to Colby, which is calculated using the formula below and is likewise regarded as an indication of synergism (cf. S. R. Colby; in Weeds 15 (1967) p. 20 to 22): E^C=A+B−([…])
(§2) Here: • A=efficacy of the active compound (A) in % at an application rate of a g a.i./ha; • B=efficacy of the active compound (B) in % at an application rate of b g a.i./ha; • E^C=expected value of the effect of the combination (A)+(B) in % at the combined application rate a+b g a.i./ha.
(§3) Seeds or rhizome pieces of mono- and dicotyledonous weeds are placed in sandy loam in pots, covered with soil and grown in a greenhouse under good growth conditions (temperature, air humidity, water supply). Three weeks after sowing, the test plants were treated at the three-leaf stage with the compositions according to the invention. The compositions according to the invention formulated as spray powders or as emulsion concentrates were sprayed onto the green plant parts in various dosages with an application rate of 300 to 800 l/ha of water (equivalent). After the test plants have been left to stand in the greenhouse under optimal growth conditions for about 3 to 4 weeks, the action of the preparations is scored visually in comparison to untreated controls. The compositions according to the invention also have good post-emergence herbicidal activity against a broad spectrum of economically important gramineous and broadleaf weeds.

[2] = test system: Lolium rigidum (resistant biotype); experiment: Post-emergence herbicidal action against Lolium rigidum (resistant biotype)
[3] = test system: Poa annua; experiment: Post-emergence herbicidal action against Poa annua
Procedure: as §1, §2, §3

[4] = test system: Lamium purpureum; experiment: Post-emergence herbicidal action against Lamium purpureum
Procedure: as §1, §2, §3

[5] = test system: Bromus sterilis; experiment: Post-emergence herbicidal action against Bromus sterilis
[6] = test system: Lolium rigidum; experiment: Post-emergence herbicidal action against Lolium rigidum
[7] = test system: Viola tricolor; experiment: Post-emergence herbicidal action against Viola tricolor
[8] = test system: Matricaria inodora; experiment: Post-emergence herbicidal action against Matricaria inodora
[9] = test system: Phalaris minor; experiment: Post-emergence herbicidal action against Phalaris minor
[10] = test system: Alopecurus myosuroides; experiment: Post-emergence herbicidal action against Alopecurus myosuroides
[11] = test system: Centaurea cyano; experiment: Post-emergence herbicidal action against Centaurea cyano; details: 4.5 g of a.i./ha
Procedure: Seeds or rhizome pieces of mono- and dicotyledonous weeds are placed in sandy loam in pots, covered with soil and grown in a greenhouse under good growth conditions (temperature, air humidity, water supply). Three weeks after sowing, the test plants were treated at the three-leaf stage with the compositions according to the invention. The compositions according to the invention formulated as spray powders or as emulsion concentrates were sprayed onto the green plant parts in various dosages with an application rate of 300 to 800 l/ha of water (equivalent).

SMILES: Cc1nn(-c2cc(CC(Cl)C(=O)O)c(Cl)cc2F)c(=O)n1C(F)F (centres unmarked) [(B4.8) Carfentrazone]
- Herbicidal action in [%] 28 DAT against Galium aparine ([1]; 5 g of a.i./ha): 70%
- Herbicidal action in [%] 28 DAT against Galium aparine ([1]; 15 g of a.i./ha): 80%
- Herbicidal action in [%] 14 DAT against Lolium rigidum (resistant biotype) ([2]; 15 g of a.i./ha): 10%
- Herbicidal action in [%] 28 DAT against Lolium rigidum (resistant biotype) ([2]; 15 g of a.i./ha): 0%
- Herbicidal action in [%] 14 DAT against Lolium rigidum (resistant biotype) ([2]; 45 g of a.i./ha): 25%
- Herbicidal action in [%] 28 DAT against Lolium rigidum (resistant biotype) ([2]; 45 g of a.i./ha): 20%
- Herbicidal action in [%] 14 DAT against Poa annua L. ([3]; 5 g of a.i./ha): 0%
- Herbicidal action in [%] 14 DAT against Poa annua L. ([3]; 15 g of a.i./ha): 0%
- Herbicidal action in [%] 28 DAT against Poa annua L. ([3]; 15 g of a.i./ha): 0%
- Herbicidal action in [%] 14 DAT against Poa annua L. ([3]; 45 g of a.i./ha): 10%
- Herbicidal action in [%] 28 DAT against Poa annua L. ([3]; 45 g of a.i./ha): 20%
- Herbicidal action in [%] 28 DAT against Lamium purpureum L. ([4]; 45 g of a.i./ha): 80%
- Herbicidal action in [%] 14 DAT against Bromus sterilis ([5]; 15 g of a.i./ha): 20%
- Herbicidal action in [%] 28 DAT against Bromus sterilis ([5]; 15 g of a.i./ha): 15%
- Herbicidal action in [%] 14 DAT against Bromus sterilis ([5]; 45 g of a.i./ha): 30%
- Herbicidal action in [%] 28 DAT against Bromus sterilis ([5]; 45 g of a.i./ha): 35%
- Herbicidal action in [%] 28 DAT against Lolium rigidum ([6]; 15 g of a.i./ha): 0%
- Herbicidal action in [%] 28 DAT against Lolium rigidum ([6]; 45 g of a.i./ha): 20%
- Herbicidal action in [%] 28 DAT against Viola tricolor ([7]; 5 g of a.i./ha): 80%
- Herbicidal action in [%] 14 DAT against Matricaria inodora ([8]; 5 g of a.i./ha): 25%
- Herbicidal action in [%] 14 DAT against Phalaris minor ([9]; 15 g of a.i./ha): 15%
- Herbicidal action in [%] 28 DAT against Phalaris minor ([9]; 15 g of a.i./ha): 0%
- Herbicidal action in [%] 14 DAT against Phalaris minor ([9]; 45 g of a.i./ha): 20%
- Herbicidal action in [%] 28 DAT against Phalaris minor ([9]; 45 g of a.i./ha): 10%
- Herbicidal action in [%] 14 DAT against Alopecurus myosuroides ([10]; 5 g of a.i./ha): 0%
- Herbicidal action in [%] 14 DAT against Alopecurus myosuroides ([10]; 15 g of a.i./ha): 0%
- Herbicidal action in [%] 28 DAT against Alopecurus myosuroides ([10]; 15 g of a.i./ha): 0%
- Herbicidal action in [%] 14 DAT against Alopecurus myosuroides ([10]; 15 g of a.i./ha, second 14 DAT block): 15%
- Herbicidal action in [%] 14 DAT against Alopecurus myosuroides ([10]; 45 g of a.i./ha): 25%
- Herbicidal action in [%] 28 DAT against Alopecurus myosuroides ([10]; 45 g of a.i./ha): 20%
- Herbicidal action in [%] 14 DAT against Alopecurus myosuroides ([10]; 45 g of a.i./ha, second 14 DAT block): 35%

SMILES: CC(C)C1(C)N=C(c2ncccc2C(=O)O)NC1=O (centres unmarked) [(B4.13) Imazapyr]
- Herbicidal action in [%] 28 DAT against Galium aparine ([1]; 0.5 g of a.i./ha): 30%
- Herbicidal action in [%] 14 DAT against Galium aparine ([1]; 1.5 g of a.i./ha): 40%
- Herbicidal action in [%] 28 DAT against Galium aparine ([1]; 1.5 g of a.i./ha): 50%
- Herbicidal action in [%] 14 DAT against Galium aparine ([1]; 4.5 g of a.i./ha): 25%
- Herbicidal action in [%] 28 DAT against Galium aparine ([1]; 4.5 g of a.i./ha): 40%
- Herbicidal action in [%] 14 DAT against Lolium rigidum (resistant biotype) ([2]; 0.5 g of a.i./ha): 0%
- Herbicidal action in [%] 14 DAT against Lolium rigidum (resistant biotype) ([2]; 1.5 g of a.i./ha): 10%
- Herbicidal action in [%] 28 DAT against Lolium rigidum (resistant biotype) ([2]; 1.5 g of a.i./ha): 0%
- Herbicidal action in [%] 14 DAT against Lolium rigidum (resistant biotype) ([2]; 4.5 g of a.i./ha): 15%
- Herbicidal action in [%] 28 DAT against Lolium rigidum (resistant biotype) ([2]; 4.5 g of a.i./ha): 15%
- Herbicidal action in [%] 28 DAT against Poa annua L. ([3]; 0.5 g of a.i./ha): 0%
- Herbicidal action in [%] 14 DAT against Poa annua L. ([3]; 1.5 g of a.i./ha): 0%
- Herbicidal action in [%] 28 DAT against Poa annua L. ([3]; 1.5 g of a.i./ha): 15%
- Herbicidal action in [%] 14 DAT against Poa annua L. ([3]; 4.5 g of a.i./ha): 0%
- Herbicidal action in [%] 28 DAT against Poa annua L. ([3]; 4.5 g of a.i./ha): 20%
- Herbicidal action in [%] 14 DAT against Lamium purpureum L. ([4]; 0.5 g of a.i./ha): 0%
- Herbicidal action in [%] 28 DAT against Lamium purpureum L. ([4]; 0.5 g of a.i./ha): 0%
- Herbicidal action in [%] 14 DAT against Lamium purpureum L. ([4]; 1.5 g of a.i./ha): 25%
- Herbicidal action in [%] 28 DAT against Lamium purpureum L. ([4]; 1.5 g of a.i./ha): 0%
- Herbicidal action in [%] 14 DAT against Lamium purpureum L. ([4]; 4.5 g of a.i./ha): 40%
- Herbicidal action in [%] 28 DAT against Lamium purpureum L. ([4]; 4.5 g of a.i./ha): 20%
- Herbicidal action in [%] 14 DAT against Bromus sterilis ([5]; 0.5 g of a.i./ha): 0%
- Herbicidal action in [%] 14 DAT against Bromus sterilis ([5]; 1.5 g of a.i./ha): 0%
- Herbicidal action in [%] 28 DAT against Bromus sterilis ([5]; 1.5 g of a.i./ha): 10%
- Herbicidal action in [%] 14 DAT against Bromus sterilis ([5]; 4.5 g of a.i./ha): 25%
- Herbicidal action in [%] 28 DAT against Bromus sterilis ([5]; 4.5 g of a.i./ha): 15%
- Herbicidal action in [%] 14 DAT against Lolium rigidum ([6]; 1.5 g of a.i./ha): 0%
- Herbicidal action in [%] 28 DAT against Lolium rigidum ([6]; 1.5 g of a.i./ha): 0%
- Herbicidal action in [%] 14 DAT against Lolium rigidum ([6]; 4.5 g of a.i./ha): 20%
- Herbicidal action in [%] 28 DAT against Lolium rigidum ([6]; 4.5 g of a.i./ha): 15%
- Herbicidal action in [%] 14 DAT against Viola tricolor ([7]; 0.5 g of a.i./ha): 10%
- Herbicidal action in [%] 14 DAT against Viola tricolor ([7]; 1.5 g of a.i./ha): 40%
- Herbicidal action in [%] 28 DAT against Viola tricolor ([7]; 1.5 g of a.i./ha): 20%
- Herbicidal action in [%] 14 DAT against Viola tricolor ([7]; 4.5 g of a.i./ha): 40%
- Herbicidal action in [%] 28 DAT against Viola tricolor ([7]; 4.5 g of a.i./ha): 15%
- Herbicidal action in [%] 14 DAT against Centaurea cyanus [11]: 10%
- Herbicidal action in [%] 28 DAT against Centaurea cyanus [11]: 25%
- Herbicidal action in [%] 14 DAT against Matricaria inodora ([8]; 0.5 g of a.i./ha): 0%
- Herbicidal action in [%] 28 DAT against Matricaria inodora ([8]; 0.5 g of a.i./ha): 0%
- Herbicidal action in [%] 28 DAT against Matricaria inodora ([8]; 4.5 g of a.i./ha): 20%
- Herbicidal action in [%] 14 DAT against Phalaris minor ([9]; 0.5 g of a.i./ha): 0%
- Herbicidal action in [%] 28 DAT against Phalaris minor ([9]; 0.5 g of a.i./ha): 0%
- Herbicidal action in [%] 14 DAT against Phalaris minor ([9]; 1.5 g of a.i./ha): 0%
- Herbicidal action in [%] 28 DAT against Phalaris minor ([9]; 1.5 g of a.i./ha): 10%
- Herbicidal action in [%] 14 DAT against Phalaris minor ([9]; 4.5 g of a.i./ha): 25%
- Herbicidal action in [%] 28 DAT against Phalaris minor ([9]; 4.5 g of a.i./ha): 20%
- Herbicidal action in [%] 14 DAT against Alopecurus myosuroides ([10]; 1.5 g of a.i./ha): 10%
- Herbicidal action in [%] 14 DAT against Alopecurus myosuroides ([10]; 4.5 g of a.i./ha): 20%
- Herbicidal action in [%] 28 DAT against Alopecurus myosuroides ([10]; 4.5 g of a.i./ha): 20%

— patent US12171230B2, “Herbicidal compositions” (Bayer Aktiengesellschaft, priority 2018, dated 2024)
